From patent US20160090351A1, “INHIBITORS OF DEUBIQUITINATING PROTEASES” (BRANDEIS UNIVERSITY, priority 2013, published 2016)

Tests used:
DUBs = experiment: decomposition of high molecular weight ubiquitinated proteins (HMW-Ub) in lysates of HEK 293T cells expressing HA-Ub; format: biochemical, human; conditions: for DUB inhibitory activity, SAR in words: relative to C4 or parent analog
How it was run: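 HEK 293T lysates expressing N-terminally HA-tagged ubiquitin (1 mg/mL) were incubated with compound (1% DMSO) at 37° C, and aliquots were quenched over time in reducing loading buffer. HMW-Ub decomposition was followed by SDS-PAGE and anti-HA immunoblotting. EC50 was determined after 2 h with varying compound concentrations.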

K562 cells = experiment: accumulation of K48- and K63-linked Ub in K562 cells; format: cell-based, human; conditions: for accumulation of K48-linked HMW-Ub: 50 μM, 2 h
Method: FIG. 34 depicts data showing that diphenylcarbonates cause the accumulation of HMW-Ub and reduce the levels of Bcr-Abl in K562 cells. A. K562 cells were treated with diphenyl carbonates (50 μM) for 2 h and then assayed for the accumulation of K48-linked Ub. B. As in A, but Bcr-Abl was measured by immunoblotting with anti-Abl antibodies. C. K562 cells were treated with C17 (50 μM) in the presence and absence of bortezomib (6 μM) for 4 hours and Bcr-Abl was measured by immunblotting with anti-Abl antibodies. D. Quantitation of blot in C. Significance: DMSO relative to C17 and bortezomib p=0.002; DMSO relative to C17, p=0.03. E. K562 cells were treated with C15 for 4 hours then analyzed for SMAD4 monoubiquitination by western blot. F. Quantitation of blots in A. (N=3). See also FIG. 40.
FIG. 40 depicts data showing that diphenyl carbonates induce the degradation of Bcr-Abl kinase. A. K562 cells were treated with C17 for 24 h (1 dose) then analyzed for Bcr-Abl expression by western blot with anti-Abl antibody. B. Quantitation of blots in A normalized to actin. C. K562 cells were treated with C17 for 24 h then the amount of cells in G1 and apoptosis were recorded (N=3). D. K562 were treated with C15 for 4 h then analyzed for Bcr-Abl expression using western blot. E. Quantitation of Bcr-Abl from D normalized to tubulin (N=4). F. Same K562 lysates were separately analyzed for K63-linked ubiquitin. G. Quantitation of blots in F (N=4). Differences between all bars is significant p<0.01). H. K562 cells were treated with C15 for 24 h after which time cells were fixed in ethanol, treated with propodium iodide/RNAse then analyzed by FACS. Viability was calculated using forward and side scatter. I. Same experiment as H but red fluorescence was measured to determine DNA content
Transfected cells were harvested 1.5 days post transfection. […] Typically clarified lysate was analyzed.

Structure (SMILES)	increase of inhibitory potency relative to C4 (factor) (DUBs)	accumulation of K48-linked HMW-Ub (K562 cells)	stabilization of the HMW-Ub pool (DUBs; HEK 293T HA-Ub lysates, 37° C.)	DUB inhibitory activity, SAR in words (DUBs)	accumulation of K63-linked ubiquitin (K562 cells; C15 4 h)
NCc1ccc(OC(=O)Oc2ccc(Cl)cc2)cc1 [Compound C14, 4-(aminomethyl)phenyl(4-chlorophenol)carbonate]	approximately 10	caused the accumulation of K48-linked HMW-Ub in K562 cells			
O=C1/C(=C/c2ccc([N+](=O)[O-])cc2)CS(=O)(=O)C/C1=C\c1ccc([N+](=O)[O-])cc1 [Compound G5, reference compound]			stabilized the HMW-Ub pool		
NCc1ccc(OC(=O)Oc2ccc3ccccc3c2)cc1 [Compound C17]		caused the accumulation of K48-linked HMW-Ub in K562 cells		improved potency relative to C4	
NCc1ccc(OC(=O)Oc2cccc3ccccc23)cc1 [Compound C18]		caused the accumulation of K48-linked HMW-Ub in K562 cells		improved potency relative to C4	
NCc1ccc(OC(=O)Oc2ccc(Br)cc2)cc1 [Compound C15, 4-(aminomethyl)phenyl(4-bromophenyl)carbonate]	approximately 10	caused the accumulation of K48-linked HMW-Ub in K562 cells			caused the accumulation of K63-linked ubiquitin
